pIC50: −log10 of the molar value. Active and inactive are the calls of the source. The rule behind the calls is not given here.
System: Leishmania donovani growth inhibition
Assay: Leishmania donovani growth inhibition (AID 1159560);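 note: parasites exposed to compound for 72 h before the viability read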

Compound | IC50 | pIC50
COCCn1c(-c2ccccc2)cnc1NCc1ccccc1OC | > 50 µM (inactive) | 
FC(F)(F)c1cc(C2CCCN(Cc3c[nH]c4ccccc34)C2)nc2ncnn12 (stereo not drawn) | > 50 µM (inactive) | 
CC1(Oc2cncc(Cl)c2)CCN(Cc2cc3ccccc3[nH]2)C1 (stereo not drawn) | > 50 µM (inactive) | 
c1ccc2[nH]c(-c3ccc(N4CCCC4)nc3)nc2c1 |  | 5.30
COc1ccc(NS(=O)(=O)c2cccc(NC(=O)c3cc(F)cc(F)c3)c2)cc1 |  | 5.49
Fc1ccccc1N1C[C@H]2CCN(c3cccnc3)C[C@H]2C1 |  | 4.89
O=C(N1CCc2ccccc2CC1)C1(C(=O)N2CCC(n3c(=O)[nH]c4ncccc43)CC2)CC1 | > 50 µM (inactive) | 
O=C1CN(C2CCCc3c(OCc4ccncc4)cccc32)C(=O)N1C1CCCCC1 (stereo not drawn) | > 50 µM (inactive) | 
O=C(c1cccc(Nc2ncc(-c3ccc4c(c3)OCO4)cn2)c1)N1CCOCC1 |  | 5.70
CC(CCc1ccccc1)NC(=O)CN(Cc1ccccn1)Cc1ccccn1 (stereo not drawn) |  | 5.10
O=C(NCCc1ccccn1)C(c1cn[nH]c1)N1CCN(c2ccc(Cl)c(Cl)c2)CC1 (stereo not drawn) |  | 5.60
CCS(=O)(=O)Nc1ccc(C2=NN(C(=O)c3cccs3)C(c3ccccc3OC)C2)cc1 (stereo not drawn) |  | 5.89
COc1ccc(-c2cnc(C)o2)cc1S(=O)(=O)Nc1ccc(C)cc1C |  | 5.40
CCC(=O)N1N=C(c2ccc3c(c2)CCCC3)Sc2c1ncn2C(=O)CC |  | 4.60
O=[N+]([O-])c1cccc(Nc2cncc(-c3ccccc3CO)c2)c1 |  | 4.40
Cc1cccc(Nc2nc(-c3ccccn3)cs2)n1 |  | 5.40
CCCCCNC(=O)c1c[nH]c2ccc(S(=O)(=O)N(C)c3ccc(OCC)cc3)cc2c1=O | > 50 µM (inactive) | 
O=C(NCCc1nc(-c2ccc(F)c(F)c2)n[nH]1)C1CCCCC1 | > 50 µM (inactive) | 
Cc1cc(NC(=O)CC2CCCCC2)n(-c2nc3c(c(=O)[nH]2)CCC3)n1 |  | 7.49
CCC(CC)C(=O)Nc1ccc(-c2nnc(-c3ccc(OC)cc3)o2)cc1 | > 50 µM (inactive) | 
CCc1cc(C(=O)Nc2nccn2-c2ccccc2)cs1 |  | 5.20
Cc1sc(C)c(C(F)(F)F)c1CNCCCNc1cc(=O)c2ccccc2[nH]1 | > 50 µM (inactive) | 
Cc1ccccc1CNc1cc(C2CC2)nc(-c2nccn2C)n1 |  | 5.80
COc1ccc(S(=O)(=O)Nc2ccccc2OC)cc1NC(=O)CCCc1c[nH]c2ccccc12 |  | 4.60
OC1CCC(Nc2nccc(-c3sc(C4CCOCC4)nc3-c3ccc(F)c(F)c3)n2)CC1 (stereo not drawn) |  | 5.49
COc1ccc(Nc2nccc(N(C)c3n[nH]c4c(F)cccc34)n2)cc1S(C)(=O)=O |  | 4.60

Compound | IC50 | pIC50
CC(C)S(=O)(=O)c1ccc(-c2cnc(N)c3cc(-c4ccnc(N)n4)ccc23)cc1 |  | 5.70
CC(=O)Nc1ccc(-c2noc(CC3CCCN(Cc4cccc(F)c4C)C3)n2)cc1 (stereo not drawn) |  | 4.40
CCN(CC)c1nc(Nc2ccncc2)nc2ccccc12 |  | 6.10
CCCc1cc(C(=O)Nc2ncc(-c3cccc(Br)c3)n2C)n[nH]1 |  | 5.20
NC(=O)c1cc(NC(=O)c2ccccc2COc2ccccc2)ccc1Cl |  | 5.10
COc1cc(NC(=O)Nc2cccc(CNC(=O)OC3CCCCC3)c2)ccc1-c1cnco1 | > 50 µM (inactive) | 
O=C(CCCNC(=O)c1ccc(Cl)cc1)Nc1nc(-c2ccccn2)cs1 | > 50 µM (inactive) | 
Cc1nc2c(-c3n[nH]c(-c4ccccc4N)n3)cccn2c1C |  | 5.20
CC(C)CC(=O)NC(c1cccs1)c1ccc2cccnc2c1O (stereo not drawn) |  | 5.20
NC(=O)c1ccsc1NC(=O)c1ccc([N+](=O)[O-])s1 |  | 6.49
Cn1cc(CN2CCN(c3ccc4c(c3)CCN(C(=O)[C@H]3C[C@@H]3c3ccccc3)CC4)CC2)cn1 |  | 6.20
CCOc1ccc(NC(=O)C=Cc2ccc(CC)o2)cc1 |  | 4.70
COc1ncc(-c2ccc3nccc(-c4ccncc4)c3c2)cc1NS(C)(=O)=O |  | 5.49
CC(C)c1nn(-c2nc(N)nc(-c3ccccn3)n2)c(N)c1C1CCCCC1 |  | 5.10
Cc1cnc(Nc2cc(Cc3ccccc3)nc(NC3CCC(O)CC3)n2)s1 (stereo not drawn) |  | 6.10
O=C1CN(C(=O)c2cccc(Nc3ncc(-c4ccc5c(c4)OCO5)cn3)c2)CCN1 |  | 5.80
O=c1cc(CSc2ccc(Cl)cc2)nc(-c2ccccn2)[nH]1 |  | 5.80
CN(Cc1nnnn1C1CCN(Cc2ccc(-n3ccnc3)cc2)CC1)c1ccc(F)cc1F | > 50 µM (inactive) | 
COc1ccc(C2=NCC(CSc3nnc(-c4ccc5c(c4)OCO5)o3)S2)cc1 (stereo not drawn) |  | 6.00
CCOc1ccccc1C(=O)Nc1nnc(-c2ccc3c(c2)OCO3)s1 |  | 6.10
N#Cc1cccc(CN2CCC(c3nc(-c4ccc(C(F)(F)F)nc4)no3)CC2)c1 |  | 4.89
CCN(CC)c1ccc(S(=O)(=O)N(CC)CC)c2nonc12 |  | 5.20
CCCn1c(NC(=O)CCn2cc(Br)cn2)nc2ccccc21 |  | 5.00
Cc1ccc(NC(=O)c2ccc(Cl)c(NC(=O)c3ccc([N+](=O)[O-])cc3)c2)cc1 | > 50 µM (inactive) | 
CCc1ccccc1[C@@H](C)NC(=O)c1cnc2c(cnn2CC)c1NC1CCN(C(N)=O)CC1 | > 50 µM (inactive) | 
O=c1cc(NCCCNCc2cc(C(F)(F)F)cs2)[nH]c2ccccc12 | > 50 µM (inactive) | 

Compound | IC50 | pIC50
COc1ccc(Cl)cc1CC(=O)Nc1n[nH]c(-c2ccccn2)n1 |  | 5.40
CCOc1cnn(C)c(=O)c1Nc1ccc(C(=O)NCc2ccc(F)cc2)cc1 |  | 4.49
COc1ccc(NS(=O)(=O)c2cc(-c3cc(C)[nH]n3)ccc2C)cc1OC |  | 6.00
CC(C)(C)C(=O)Nc1cc(C2CC2)nn1-c1nc2c(c(=O)[nH]1)CCCC2 |  | 7.10
COc1ccc(NS(=O)(=O)c2cc(NC(=O)c3ccc([N+](=O)[O-])s3)ccc2OC)cc1 |  | 6.30
COc1ccc(C2CC(c3ccccc3Cl)=NN2C(=O)CNC(=O)C2CCC2)cc1 (stereo not drawn) | > 50 µM (inactive) | 
CC(=O)Nc1nc(-c2cc(C)ccc2C)c(C)s1 | > 50 µM (inactive) | 
O=C(c1cc2cc(Cl)ccc2[nH]1)N1CCCCC1c1cccnc1 (stereo not drawn) |  | 4.30
C=CC[C@@H]1CC=C[C@@H](C)N1C(=O)CCc1nnc(-c2ccc3c(c2)OCO3)o1 |  | 5.20
Cc1cc(Br)cc(C(=O)c2c(C(C)C)c(=O)[nH]c(=O)n2Cc2ccnc(N)c2)c1 | > 50 µM (inactive) | 
CN1CCCN(C(=O)c2ccc(N3CCCC3)cc2Cl)CC1 |  | 4.40
O=C(CN1CCN(S(=O)(=O)c2cccc([N+](=O)[O-])c2)CC1)Nc1ccc(Oc2ccccc2)cc1 |  | 5.40
Cc1nc2nc(C)c(Cc3ccc(C(C)C)cc3)c(=O)n2[nH]1 |  | 5.89
Cc1ccc(NC(=O)c2ccnc(N3CCCC3)c2)cc1-c1ccsc1C(N)=O | > 50 µM (inactive) | 
O=C(NCC1CCCCN1C(=O)c1cccc2ccccc12)c1ccccc1 (stereo not drawn) | > 50 µM (inactive) | 
C[C@@H](Oc1cc(-n2cnc3cc(N)ccc32)sc1C(N)=O)c1ccccc1Cl |  | 5.49
O=C(NNC(=O)c1ccccn1)c1ccc(-c2ccccc2)cc1 |  | 5.49
COCc1cc(Nc2cccc(Cl)c2)nc(-c2ccccn2)n1 |  | 5.60
COc1ccc([N+](=O)[O-])cc1NC(=O)Nc1cccc(Cl)c1 | > 50 µM (inactive) | 
N#Cc1cccc(Cc2cc(Nc3cc(C4CC4)[nH]n3)nc(N3CC[C@H]3C(N)=O)n2)c1 |  | 6.20
CS(=O)(=O)NC1CCC(Nc2ncc(Br)c(Nc3ccccc3C(N)=O)n2)CC1 (stereo not drawn) |  | 6.00
CCn1nccc1CN(C)C(=O)C=Cc1ccc(Cl)cc1 |  | 4.80
Cc1cc(Br)sc1CNCCCNc1cc(=O)c2ccccc2[nH]1 | > 50 µM (inactive) | 
C[C@@H](Oc1cc(-n2cnc3ccc(CC(O)CO)cc32)sc1C(N)=O)c1ccccc1Cl (stereo partly drawn) |  | 4.60
Cc1c(CNC(=O)c2ccc(Cn3cc(Cl)c([N+](=O)[O-])n3)cc2)cnn1C | > 50 µM (inactive) | 
COc1ccc2ncc(=O)n(CCN3CCC(NCc4ccc(-c5cccs5)cc4)CC3)c2n1 |  | 5.80

Compound | IC50 | pIC50
CC(C)C[C@H](NC(=O)c1ccc(-c2ccccc2)o1)C(=O)NC1(C#N)CC1 | > 50 µM (inactive) | 
N#Cc1cccc(Nc2nccc(N3CCC(NS(=O)(=O)c4cccc(C#N)c4)CC3)n2)c1 |  | 6.20
CC1=NN(C(=O)CCn2cnc([N+](=O)[O-])n2)C(O)(C(F)(F)F)C1 (stereo not drawn) | > 50 µM (inactive) | 
O=C(CSc1nnc(-c2ccc3c(c2)OCO3)o1)N(Cc1ccco1)CC(F)(F)F |  | 4.80
Cc1nc(N2CC(C)OC(C)C2)sc1C(=O)Nc1ccc2c(c1)OCO2 (stereo not drawn) |  | 5.20
O=c1[nH]c(C=Cc2cccc(OCCOc3ccccc3)c2)nc(O)c1[N+](=O)[O-] | > 50 µM (inactive) | 
O=C(Nc1nc(-c2ccccn2)cs1)N1C[C@H]2C[C@@]2(c2ccccc2)C1 |  | 5.70
O=C(CSc1nnc2ccc(-c3ccc(F)cc3)nn12)N1CCCCC1 | > 50 µM (inactive) | 
Cc1cc(=O)n2nc(Oc3ccc(C#N)cc3Cl)sc2n1 |  | 4.89
O=C(Nc1nc(-c2ccc(F)cc2)cs1)c1ccc([N+](=O)[O-])s1 |  | 6.20
CN(C)c1ccc(-c2cc3nccnc3c(OC[C@H]3CCCNC3)n2)cn1 | > 50 µM (inactive) | 
CNc1cncc(C2CCCN2C(=O)Cc2ccc3ccccc3c2)n1 (stereo not drawn) | > 50 µM (inactive) | 
CC(C)C[C@H](NC(=O)c1csc(-c2cccs2)n1)C(=O)NC1(C#N)CC1 |  | 5.30
COc1ccc(Oc2ccc(C(C)N(C)c3ncc4c(N)nc(N)nc4n3)cc2)cc1 (stereo not drawn) |  | 7.40
OCCCNc1nc(Nc2ccncc2)nc2ccccc12 |  | 4.40
CCC(=O)Nc1ccccc1C(=O)Nc1ccccn1 | > 50 µM (inactive) | 
COc1ccc(NS(=O)(=O)c2ccc(S(=O)(=O)N(C)C3CCCCC3)cc2)c2ncccc12 | > 50 µM (inactive) | 
Cc1nc(-c2ccc3c(c2)OCO3)sc1C(=O)NCc1ccc2c(c1)OCO2 |  | 5.70
CC(=O)Nc1ccc(-c2ccnc(Nc3cccc(C#N)c3)n2)cc1 |  | 4.40
COc1ccc(CN2CCCCC2c2nc(-c3cccnc3)no2)cc1 (stereo not drawn) | > 50 µM (inactive) | 
COc1ccc(OC)c(S(=O)(=O)N(Cc2c(F)cccc2F)[C@@H]2CCN(C#N)C2)c1 |  | 4.80
O=C(Nc1nc(-c2ccccn2)cs1)c1ccc(S(=O)(=O)N2CCCCC2)cc1 |  | 6.20
COc1ccc(-c2ccc3nnc(-c4ccc(O)c(OC)c4)n3c2)cn1 |  | 5.40
O=C1CCCCCC1(Cc1cnc[nH]1)c1ccc(Cl)cc1Cl (stereo not drawn) | > 50 µM (inactive) | 
OCC1CCCCN1c1cc(-c2ccccn2)nc(Nc2ccccc2)n1 (stereo not drawn) |  | 5.49

— PubChem BioAssay AID1159560 (GlaxoSmithKline (GSK), 2015)
